The values that follow are results of earlier work, collected in patent publication US20070104896A1, “Optical film, polarizing plate and image display device” (FUJIFILM Corporation, priority 2005, published 2007).

For orientation: pKa means the pH at which an ionisable group is half protonated.

For the series the following is noted: pKa of a conjugated acid of the organic base; values in an aqueous solution.
Turning to `CCN1CCOCC1` [b-13, N-Ethylmorpholine], the pKa is recorded as 7.7. Take `Cc1ncc[nH]1` [b-12, 2-Methyl imidazole]: the pKa is reported as 7.6. Turning to `Cc1ccc2ccc3ccc(C)nc3c2n1` [b-5, 2,9-Dimethyl-1,10-phenanthroline], the pKa is 5.9. Turning to `CN1CCOCC1` [b-14, N-Methylmorpholine], the pKa is on record as 7.8.

With `CN(C)CCO` [b-17, N,N-Dimethyl-2-aminoethanol], the pKa is given as 9.5. Regarding `CN(C)C` [b-18, Trimethylamine], the pKa is 9.9. Turning to `Cc1ccncc1` [b-8, 4-Methylpyridine], the pKa was 6.1. Take `Cc1ccnc2c1ccc1c(C)ccnc12` [b-6, 4,7-Dimethyl-1,10-phenanthroline]: the pKa was 5.9. With `Cc1ccccn1` [b-7, 2-Methylpyridine], the pKa is recorded as 6.1. Turning to `CN(C)c1cccnc1` [b-9, 3-(N,N-Dimethylamino)pyridine], the pKa is recorded as 6.5.

As to `COCCNCCOC` [b-15, Bis(2-methoxyethyl)amine], the pKa is given as 8.9. Consider `Cc1cccc(C)n1` [b-10, 2,6-Dimethylpyridine], for which the pKa was 7.0.
